Structures can show the parent of a compound that is named as a salt.
System: akinesia of mice during forced swimming
Experiment: mill wheel test (forced swimming), psychoanaleptic activity
Type: in vivo
Settings: 10 mg/kg subcutaneously, examination 15 minutes thereafter
Protocol: This test was conducted in the following manner according to a method described in S. Nomura et al., Eur. J. Pharmacol., 83, 171 - 175 (1982).
Activities of each drug on the akinesia of mice during forced swimming were examined by a mill wheel test. Now the meaning of this test will be described. The akinesia observed during forced swimming of mice may be regarded as emotional disturbance since the animals resign escaping from the narrow environment (device) as the result of learning. It has been known that this akinesia can be shortened by drugs having psychoanaleptic effects such as antidepressants or MAO inhibitors. Namely, each drug was orally administered to a mouse. 40 minutes after the administration, the mouse was introduced into a water tank provided with a mill wheel and contained water at 25 °C. Then, the number of rotations of the wheel was counted throughout the observation period (6 minutes). However, P-CC2 was subcutaneously administered to avoid decomposition in digestive organ and the examination was conducted for 15 minutes thereafter (see Margaret M. Schweri, Joseph V. Martin, Wallace B. Mendelson, James E. Barrett, Steven M. Paul and Phil Skolnick, Life Science, 1505-1510, 33 (1983) and P. Skolnick, M. M. Schweri, S. M. Paul, J. V. Martin and W. B. Mendelson, Life Science, 2439-2445, 32 (1983)).

Structure (SMILES) | Numbers of Rotations of Wheel
CCOC(=O)c1cc2c(cn1)[nH]c1ccccc12 [β-CCE, β-carboline-3-carboxylic acid ethyl ester] | 23.6±4.1

Same assay, conditions: 60 mg/kg orally, 40 minutes after administration, observation period 6 minutes, water at 25 °C

Structure (SMILES) | Numbers of Rotations of Wheel
CCOC(=O)c1cc2c(cn1)sc1ccccc12 [Compound A-1, benzo[b]thieno[2,3-c]pyridine-3-carboxylic acid ethyl ester] | 23.4±6.8
CCOC(=O)C1Cc2c(sc3ccccc23)CN1 (centres unmarked) [Compound A-2, l,2,3,4-tetrahydrobenzo[b]thieno[2,3-c]pyridine-3-carboxylic acid ethyl ester] | 26.5±2.9
O=C(c1cc2c(cn1)sc1ccccc12)N1CCCNCC1 [Compound A-3, hexahydro-l-(benzo[b]-thieno[2,3-c]pyridine-3-carbonyl)-lH-1,4-diazepine] | 22.4±6.7
O=C(c1cc2c(cn1)sc1ccccc12)N1CCCCC1 [Compound A-4, 1-(benzo[b]thieno[2,3-c]pyridine-3-carbonyl)piperidine] | 24.7±3.9
O=C(c1cc2c(cn1)sc1ccccc12)N1CCOCC1 [Compound A-5, 4-(benzo[b]thieno[2,3-c]pyridine-3-carbonyl)morpholine] | 21.3±4.0
NCCNC(=O)c1cc2c(cn1)sc1ccccc12 [Compound A-6, N-(2-aminoethyl)benzo[b]thieno[2,3-c]pyridine-3-carboamide] | 25.4±9.1
CCNC(=O)C1Cc2c(sc3ccccc23)CN1 (centres unmarked) [Compound A-7, N-ethyl-1,2,3,4-tetrahydrobenzo[b]thieno(2,3-c]pyridine-3-carboamide] | 19.3±8.1
CCCCCCNC(=O)C1Cc2c(sc3ccccc23)CN1 (centres unmarked) [Compound A-8, N-hexyl-1,2,3,4-tetrahydrobenzo[b]-thieno[2,3-c]pyridine-3-carboamide] | 20.9±7.6
O=C(NC1CCCCC1)C1Cc2c(sc3ccccc23)CN1 (centres unmarked) [Compound A-9, N-cyclohexyl-1,2,3,4-tetrahydrobenzo[b]thieno-[2,3-c]pyridine-3-carboamide hydrochloride] | 37.1±8.0
Clc1ccc2sc3c(c2c1)CCNC3 [Compound C-1, 6-chloro-1,2,3,4-tetrahydrobenzo[b]-thieno[2,3-c]pyridine] | 24.3±4.3

System: male Wister rats
Experiment: water lick conflict test, antianxiety activity (shocked number)
Type: in vivo
Settings: 30 mg/kg P.O., electric shocks within 5 minutes, no-drug rat defined as 100 (n = 5)
Text: (§1) The antianxiety activity and learning improvement activity of the compounds of the present invention were examined by using male Wister rats aged 6 weeks by a water lick conflict test by reference to a method described by Vogel J. R., Beer B. and Clody D. E. described in Psvcho^pharmacolo^qia, 1 - 7, 21 (1971).
(§2) In this test, rats having abstained from water were used and an electric shock was applied to the animals every time they drank water to bring the rats into an anxious state. Thus the activity of medicaments to the rats were determined.
Rats, having abstained from water for 24 hours prior to the test, were allowed to access to water. After 4 to 5 hours, a drug was administered to the animals. After a definite treatment period, the test was initiated. The shocked number means the number of electric shocks applied to the rats within 5 minutes after initially allowing them to access to water. […] That is, an increase in the shocked number means that the antianxiety activity is increased.

Structure (SMILES) | Shocked Number
O=C(NC1CCCCC1)C1Cc2c(sc3ccccc23)CN1 (centres unmarked) [Compound A-9, N-cyclohexyl-1,2,3,4-tetrahydrobenzo[b]thieno-[2,3-c]pyridine-3-carboamide hydrochloride] | 389±41

Same assay, conditions: 40 mg/kg P.O., electric shocks within 5 minutes, no-drug rat defined as 100 (n = 5)

Structure (SMILES) | Shocked Number
CCOC(=O)c1cc2c(cn1)sc1ccccc12 [Compound A-1, benzo[b]thieno[2,3-c]pyridine-3-carboxylic acid ethyl ester] | 117.1±25.7
CCNC(=O)C1Cc2c(sc3ccccc23)CN1 (centres unmarked) [Compound A-7, N-ethyl-1,2,3,4-tetrahydrobenzo[b]thieno(2,3-c]pyridine-3-carboamide] | 127.1±31.5
CCCCCCNC(=O)C1Cc2c(sc3ccccc23)CN1 (centres unmarked) [Compound A-8, N-hexyl-1,2,3,4-tetrahydrobenzo[b]-thieno[2,3-c]pyridine-3-carboamide] | 111.8±28.6
Clc1ccc2sc3c(c2c1)CCNC3 [Compound C-1, 6-chloro-1,2,3,4-tetrahydrobenzo[b]-thieno[2,3-c]pyridine] | 104.3±28.6
CCOC(=O)c1cc2c(cn1)[nH]c1ccccc12 [β-CCE, β-carboline-3-carboxylic acid ethyl ester] | 82.9±20.0

System: male Wister rats
Experiment: water lick conflict test, learning improvement activity (latent time)
Type: in vivo
Settings: 30 mg/kg P.O., time until first drinking water, average of no-drug rats defined as 100 (n = 5)
Text: as §1, §2
This test was conducted simultaneously with the measurement of the antianxiety activity (2) and aims at measuring the latent time when the rats abstinence from water first began to drink water.
A longer latent time means the higher learning improvement activity.

Structure (SMILES) | Latent Time
O=C(NC1CCCCC1)C1Cc2c(sc3ccccc23)CN1 (centres unmarked) [Compound A-9, N-cyclohexyl-1,2,3,4-tetrahydrobenzo[b]thieno-[2,3-c]pyridine-3-carboamide hydrochloride] | 350±32

Same assay, conditions: 40 mg/kg P.O., time until first drinking water, average of no-drug rats defined as 100 (n = 5)

Structure (SMILES) | Latent Time
CCOC(=O)c1cc2c(cn1)sc1ccccc12 [Compound A-1, benzo[b]thieno[2,3-c]pyridine-3-carboxylic acid ethyl ester] | 132±29.9
CCNC(=O)C1Cc2c(sc3ccccc23)CN1 (centres unmarked) [Compound A-7, N-ethyl-1,2,3,4-tetrahydrobenzo[b]thieno(2,3-c]pyridine-3-carboamide] | 232±34.7
CCCCCCNC(=O)C1Cc2c(sc3ccccc23)CN1 (centres unmarked) [Compound A-8, N-hexyl-1,2,3,4-tetrahydrobenzo[b]-thieno[2,3-c]pyridine-3-carboamide] | 249±36.6
Clc1ccc2sc3c(c2c1)CCNC3 [Compound C-1, 6-chloro-1,2,3,4-tetrahydrobenzo[b]-thieno[2,3-c]pyridine] | 128±19.6
CCOC(=O)c1cc2c(cn1)[nH]c1ccccc12 [β-CCE, β-carboline-3-carboxylic acid ethyl ester] | 312±38.2

System: not listed separately
Experiment: subacute toxicity, oral administration for 35 days
Settings: rat, in vivo, Safe Dose
Protocol: (§3) Subacute toxicities of N-(2-aminoethyl)benzo[b]thieno-[2,3-c]pyridine-3-carboamide (A-6) and N-cyclohexyl-1,2,3,4-tetrahydrobenzo[b]thieno[2,3-c]pyridine-3-carboamide (A-9) were tested by orally administering these compounds to Wistar rats for 35 days. The test was conducted in the following manner.
(§4) Each compound was compulsory orally administered to Wistar SPF rats once a day between 9.00 a.m. to 11:30 a.m. by using a 2 ml or 5 ml disposable syringe and a rat gastric sound for 35 days continuously. Syringes were exchanged for each dose and for each compound. The administration period was determined by referring the initial day of the administration as to 0 day.

Structure (SMILES) | NOAEL at 840 h [mg/kg]
NCCNC(=O)c1cc2c(cn1)sc1ccccc12 [Compound A-6, N-(2-aminoethyl)benzo[b]thieno[2,3-c]pyridine-3-carboamide] | 50
O=C(NC1CCCCC1)C1Cc2c(sc3ccccc23)CN1 (centres unmarked) [Compound A-9, N-cyclohexyl-1,2,3,4-tetrahydrobenzo[b]thieno-[2,3-c]pyridine-3-carboamide hydrochloride] | 200

Same assay, conditions: rat, in vivo, Subeffective Dose

Structure (SMILES) | NOAEL at 840 h [mg/kg]
NCCNC(=O)c1cc2c(cn1)sc1ccccc12 [Compound A-6, N-(2-aminoethyl)benzo[b]thieno[2,3-c]pyridine-3-carboamide] | 50
O=C(NC1CCCCC1)C1Cc2c(sc3ccccc23)CN1 (centres unmarked) [Compound A-9, N-cyclohexyl-1,2,3,4-tetrahydrobenzo[b]thieno-[2,3-c]pyridine-3-carboamide hydrochloride] | 50

System: Wistar rats
Experiment: subacute toxicity, oral administration for 35 days
Settings: rat, in vivo
Protocol: as §3, §4

Structure (SMILES) | Toxic (lethal) Dose [mg/kg]
NCCNC(=O)c1cc2c(cn1)sc1ccccc12 [Compound A-6, N-(2-aminoethyl)benzo[b]thieno[2,3-c]pyridine-3-carboamide] | 200
O=C(NC1CCCCC1)C1Cc2c(sc3ccccc23)CN1 (centres unmarked) [Compound A-9, N-cyclohexyl-1,2,3,4-tetrahydrobenzo[b]thieno-[2,3-c]pyridine-3-carboamide hydrochloride] | 800

From patent EP0386258A1, “TETRAHYDROPYRIDINE DERIVATIVES” (Asahi Kasei Kabushiki Kaisha, priority 1988, dated 1990)
